Data from patent US10654852B2, “Antibiotics and methods of using same” (THE BROAD INSTITUTE, INC., priority 2016, dated 2020).
Converted amounts (≈) assume the structure as drawn.

Columns and labels:
[1] = Microsomal stability assay, human CLint; format: in vitro ADME; design: unit not given here; settings: human liver microsomes, 1 μM, 0.5 mg/ml microsomal protein
Description: The activity profiles of compounds 17, 23, and 24 were assessed by various in vitro measurements. The minimum inhibitory concentration (MIC), MIC in the presence of normal human serum (NHS), microsome CLint, the % of free compounds following a plasma protein biding (PPB) assay, and the concentration of drug where the human-ether-à-go-go-related gene (hERG gene) channel block is halved (IC50(hERG)) were measured using standard in vitro protocols for compounds 17, 23, and 24. Unless otherwise indicated, measurements (e.g., microsomal clearance) were performed using a standard microsomal stability assay using LC/MS/MS techniques.
Test compounds were incubated at 37° C. with liver microsomes pooled from multiple donors at 1 μM in the presence of a NADPH regenerating system at 0.5 mg/ml microsomal protein. Positive of testosterone (a 3A4 substrate), propafenone (a 2D6 substrate), and diclofenac (a 2c9 substrate) were similarly incubated with microsomes in the presence of a NADPH regenerating system. Samples are removed at 0, 5, 10, 20, 30, and 60 minutes of incubation and immediately mixed with cold acetonitrile containing an internal standard (IS). Samples are then analyzed by LC/MS/MS to determine the disappearance of the test compound and are assessed based on the peak area ratios of analyte/IS (no standard curve).

[2] = test system: Klebsiella pneumonia ATCC-700603; experiment: MIC (50% NHS); format: cell-based; settings: Klebsiella pneumoniae, ATCC700603; Klebsiella pneumonia ATCC-700603, 50% NHS
[3] = test system: Acinetobacter baumannii ATCC 17978; experiment: MIC (50% NHS); format: cell-based; settings: ATCC17978; Acinetobacter baumannii ATCC 17978, 50% NHS
[4] = test system: Enterobacter aerogenes ATCC-13048; experiment: MIC (50% NHS); format: cell-based; settings: Klebsiella aerogenes, ATCC13048; Enterobacter aerogenes ATCC-13048, 50% NHS
[5] = test system: Enterobacter cloacae ATCC-BAA-1143; experiment: MIC (50% NHS); format: cell-based; settings: ATCCBAA1143; Enterobacter cloacae ATCC-BAA-1143, 50% NHS
[6] = test system: Serratia marcescens Bizio ATCC-29021; experiment: MIC (50% NHS); format: cell-based; settings: ATCC29021; Serratia marcescens Bizio ATCC-29021, 50% NHS
[7] = test system: Enterococcus faecium ATCC-700221; experiment: MIC (50% NHS); format: cell-based; settings: ATCC700221; Enterococcus faecium ATCC-700221, 50% NHS
[8] = test system: Staphylococcus aureus NRS-384; experiment: MIC (50% NHS); format: cell-based; settings: NRS384; Staphylococcus aureus NRS-384, 50% NHS
[9] = test system: Staphylococcus aureus NRS-100; experiment: MIC (50% NHS); format: cell-based; settings: NRS100; Staphylococcus aureus NRS-100, 50% NHS
[10] = test system: Staphylococcus aureus WX1-009; experiment: MIC (50% NHS); format: cell-based; settings: WX1009; Staphylococcus aureus WX1-009, 50% NHS
[11] = test system: Escherichia coli ATCC 25922; experiment: Deep thigh infection model in neutropenic mice, CFU count; format: in vivo; settings: 24 h P.I.; for colony forming units (CFU) compared with ciprofloxacin: 12.5 mg/kg compound vs 2.5 mg/kg ciprofloxacin, four doses; for colony forming units (CFU) as compared to the control: neutropenic CD-1 mice, thigh, 12.5 mg/kg IV four doses (1, 3, 5, 7 h P.I.)
Description: The in vivo activity to determine the CFU following administration of the test compounds was determined on a deep thigh infection caused by Escherichia coli ATCC 25922 in mice. The in vivo efficacy of various compounds was measured using a modified version of the deep-thigh infection model disclosed in Selbie, F R, et al., Br. J. Exp. Pathol. 33 (1952), 315-26 and Zuluaga, A F, et al., BMC Infect. Dis. 6 (2005) 55, each of which is hereby incorporated by reference. The efficacy was determined measuring the number of bacterial colony forming units (“CFU”) of mice injected with Escherichia coli […] on Day 0 following administration of the compounds.
Female CD-1 mice, aged 6-8-weeks, were purchased from local licensed supplier. The mice were allowed to acclimate for 3 days in the animal facility before experimentation began. The mice were then rendered neutropenic by intraperitoneal (“I.P.”) injection of 150 mg/kg cyclophosphamide on Day-4 (4 days prior to the injection of bacteria), and a maintaining dose of 100 mg/kg cyclophosphamide on Day-1 (1 day prior to the injection of bacteria). This regimen conditioned mice to neutropenia during the study. On the day of bacterial challenge (Day 0), Escherichia coli ATCC 29522 was injected into each mouse. Prior to injection, the bacterium was streaked out from −80° C. glycerol stock onto a tryptone soya agar (“TSA”) plate on Day-1. On the day of bacterial challenging (Day 0), single colonies on the agar plate were suspended in sterile saline and the final bacterial concentration was adjusted to approximately 1×10^6 CFU/ml based on turbidity readout of the bacterial solution from a Siemens MicroScan turbidity meter. The bacterial suspension was kept on ice temporarily prior to injection once the desired concentration was achieved.
On Day 0, 100 μl of bacterial suspension as prepared above was injected into the posterior quadriceps muscles of the right thigh. Antibiotic compositions comprising a tested compound in a vehicle were given to mice through tail vein injection at one hours, three hours, five hours and 7 hours post of infection (“P.I.”). The vehicle for each antibiotic composition is 5% (w/v) solutol HS15 in water. At 24 h P.I., all mice were euthanized. Infected thigh muscles for each tested mouse were excised and stored in ice-cold sterile saline for transfer to a Biosafety Level 2 (“BSL-2”) laboratory for subsequent CFU counting. Within one hour following sample collection, the muscles from mice tested with the same antibiotic composition were homogenized by a homogenizer (IKA T10 basic S25), serially diluted in sterile saline, and plated on TSA plates. The plates were incubated at 30° C. for approximately 18 h. The CFU were counted and calculated as CFU/mouse. The animal facility was AAALAC accredited, and the animal welfare in this experiment was in compliance of IACUC.
The number of colony forming units was independently measured in five different mice per composition administered. Each mouse was administered a mass of active compound per kg weight of the mouse four times a day. Mice were administered a composition without a test compound, compositions comprising 2.5 mg(ciprofloxacin)/kg, 12.5 mg(Compound 17)/kg, 12.5 mg(Compound 23)/kg, and 12.5 mg(Compound 24)/kg).

For `CN1CC2CN(C(=O)Nc3cc(F)cc(F)c3)CC(C1)C2(O)c1ccc(-c2ccc(CN)cc2C#N)cc1` [Compound 23, (1R,5S,9r)-9-(4′-(aminomethyl)-2′-cyano-[1,1′-biphenyl]-4-yl)-N-(3,5-difluorophenyl)-9-hydroxy-7-methyl-3,7-diazabicyclo[3.3.1]nonane-3-carboxamide], the “human CLint” value [1] was 93, the MIC [2] was 8 µg/mL (≈ 15.5 µM) and the MIC [3] was 64 µg/mL (≈ 124 µM). The MIC [4] was 1 µg/mL (≈ 1.93 µM), the MIC [5] was 2 µg/mL (≈ 3.86 µM) and the MIC [6] was 4 µg/mL (≈ 7.73 µM). The MIC [7] was 1 µg/mL (≈ 1.93 µM), the MIC [8] was 0.13 µg/mL (≈ 0.251 µM) and the MIC [9] was 0.13 µg/mL (≈ 0.251 µM). The MIC [10] was ≤ 0.06 µg/mL, the “colony forming units (CFU) compared with ciprofloxacin” value [11] was “Comparable results to ciprofloxacin” and the “colony forming units (CFU) as compared to the control” value [11] was “decrease the amount of colony forming units”.

In the case of `CN1CC2CN(C(=O)Nc3cc(F)cc(F)c3)CC(C1)C2(O)c1ccc(-c2ccc(CN)cc2C#N)cn1` [Compound 24, (1R,5S,9r)-9-(5-(4-(aminomethyl)-2-cyanophenyl)pyridin-2-yl)-N-(3,5-difluorophenyl)-9-hydroxy-7-methyl-3,7-diazabicyclo[3.3.1]nonane-3-carboxamide], the “human CLint” value [1] is reported as 144, the MIC [2] is reported as 16 µg/mL (≈ 30.9 µM) and the MIC [3] is reported as 64 µg/mL (≈ 123 µM). It also gave an MIC [4] of 2 µg/mL (≈ 3.86 µM), an MIC [5] of 2 µg/mL (≈ 3.86 µM) and an MIC [6] of 16 µg/mL (≈ 30.9 µM). It also gave an MIC [7] of 4 µg/mL (≈ 7.71 µM), an MIC [8] of 0.5 µg/mL (≈ 0.964 µM) and an MIC [9] of 0.25 µg/mL (≈ 0.482 µM). For the same compound, the MIC [10] was 0.25 µg/mL (≈ 0.482 µM) and the “colony forming units (CFU) as compared to the control” value [11] was “decrease the amount of colony forming units”.

In the case of `CNCc1ccc(-c2ccc(C3(O)C4CN(C)CC3CN(C(=O)Nc3cc(F)cc(F)c3)C4)nc2)c(C#N)c1` [Compound 17, (1R,5S,9r)-9-(5-(2-cyano-4-((methylamino)methyl)phenyl)pyridin-2-yl)-N-(3,5-difluorophenyl)-9-hydroxy-7-methyl-3,7-diazabicyclo[3.3.1]nonane-3-carboxamide], the “human CLint” value [1] is reported as 138, the MIC [2] is reported as 7.12 µg/mL (≈ 13.4 µM) and the MIC [3] is reported as 28.5 µg/mL (≈ 53.5 µM). The MIC [4] was 0.45 µg/mL (≈ 0.845 µM), the MIC [5] was 3.56 µg/mL (≈ 6.68 µM) and the MIC [6] was 3.56 µg/mL (≈ 6.68 µM). It also gave an MIC [7] of 0.89 µg/mL (≈ 1.67 µM), an MIC [8] of 0.22 µg/mL (≈ 0.413 µM) and an MIC [9] of 0.22 µg/mL (≈ 0.413 µM). For the same compound, the MIC [10] was ≤ 0.11 µg/mL, the “colony forming units (CFU) compared with ciprofloxacin” value [11] was “Comparable results to ciprofloxacin” and the “colony forming units (CFU) as compared to the control” value [11] was “decrease the amount of colony forming units”.
